Where no end group is shown, it is not given here.

The nature of this data set: Turbidity assay for solubility of the peptides. The class given is physicochemical. Conditions: solubility of the antigenic peptides in water or Dimethyl Sulfoxide (DMSO). Here is the method: A number of antigenic peptides of the invention were synthesized by chemical synthesis as described in Section 5.1.1.
A turbidity assay was used to assess the solubility of the peptides. Turbidity assays used either a Varian Cary double-beam spectrophotometer, or a Molecular Devices Spectromax absorbance plate reader (for high throughput experiments). The spectrophotometer assay read every 2 nm between 340 nm and 360 nm, and averaged the values. Samples were analyzed in duplicate using a quartz micro-cuvette that holds about 200 uL. The plate reader assay used a 96-well plate format that read every 4 nm between 340 nm and 360 nm and averaged those values. Samples in this assay were run in triplicate.
Consider `CSCC[C@H](NC(=O)[C@H](Cc1ccccc1)NC(=O)[C@H](C)NC(=O)CNC(=O)[C@@H](NC(=O)[C@H](Cc1ccccc1)NC(=O)[C@H](CCCNC(=N)N)NC(=O)[C@@H]1CCCN1C(=O)[C@H](CC(=O)O)NC(=O)[C@H](CCC(N)=O)NC(=O)[C@@H](NC(=O)[C@H](CO)NC(=O)[C@@H](NC(=O)CNC(=O)[C@@H](N)CCC(=O)O)C(C)C)[C@@H](C)O)C(C)C)C(=O)N[C@@H](C)C(=O)N[C@@H](C)C(=O)N[C@@H](CCCCN)C(=O)N[C@@H](C)C(=O)N[C@@H](C)C(=O)N[C@@H](Cc1c[nH]cn1)C(=O)N[C@@H](CC(C)C)C(=O)N[C@@H](CCC(=O)O)C(=O)N[C@@H](CC(C)C)C(=O)N[C@@H](CCC(=O)O)C(=O)N[C@@H](C)C(=O)N[C@@H](CCCNC(=N)N)C(=O)N[C@@H](CC(C)C)C(=O)N[C@@H](CCCCN)C(=O)N[C@@H](CO)C(=O)N[C@@H](CCCNC(=N)N)C(=O)N[C@@H](C)C(=O)N[C@@H](CCCNC(=N)N)C(=O)N[C@@H](CC(C)C)C(=O)N[C@@H](CCC(=O)O)C(=O)O` [UL14-1], for which the Solubility entry is recorded as “water”. Take “DRPSAYGTWVRVRVFRPPSLTIHPHAVLEGQPFKA [UL44-4]”: the Solubility entry is “water”. On to “DEVAPDHEAELYARVQRPGPVPDAEPIYDTVEGYA [UL10-5]”, for which the Solubility entry is reported as “water”. Under “VNSAETNTHGLAYDVPEGIRRHLRNPKIRRAFTEQ [UL13-2]” stands “water”; under `CC(C)C[C@H](NC(=O)[C@H](CO)NC(=O)[C@@H]1CCCN1C(=O)[C@H](CC(=O)O)NC(=O)[C@H](CS)NC(=O)[C@H](CC(=O)O)NC(=O)CNC(=O)[C@H](C)NC(=O)[C@@H]1CCCN1C(=O)[C@@H](N)CC(=O)O)C(=O)N[C@@H](Cc1c[nH]cn1)C(=O)N[C@H](C(=O)N[C@@H](CC(C)C)C(=O)N[C@@H](CC(C)C)C(=O)N[C@@H](CCCNC(=N)N)C(=O)N1CCC[C@H]1C(=O)N[C@H](C(=O)N[C@@H](CC(C)C)C(=O)N[C@@H](CC(C)C)C(=O)N1CCC[C@H]1C(=O)N[C@@H](CCCCN)C(=O)N[C@@H](CC(C)C)C(=O)N[C@@H](CC(C)C)C(=O)N[C@H](C(=O)N[C@@H](CCCNC(=N)N)C(=O)N[C@@H](C)C(=O)N1CCC[C@H]1C(=O)N[C@@H](Cc1ccccc1)C(=O)N[C@@H](CCCCN)C(=O)N[C@@H](CO)C(=O)NCC(=O)N[C@@H](C)C(=O)N[C@@H](C)C(=O)N[C@@H](C)C(=O)N[C@@H](C)C(=O)O)C(C)C)[C@@H](C)O)C(C)C` [UL46-1], “water”; under “VHSRVYNIIQLVLFHNNDQARRAYVARTINHPAIR [UL40-3]”, “water”.

For “DEAFPIEYVLRLMNDWADVPCNPYLRVQNTGVSVL [UL34-1]”, the Solubility result is on record as “DMSO”. As for `CC[C@H](C)[C@H](NC(=O)[C@H](CC(C)C)NC(=O)[C@H](CO)NC(=O)[C@@H](NC(=O)[C@@H](NC(=O)[C@H](Cc1ccc(O)cc1)NC(=O)[C@H](CCCCN)NC(=O)[C@@H](NC(=O)[C@H](Cc1ccc(O)cc1)NC(=O)[C@H](CCCNC(=N)N)NC(=O)[C@H](Cc1c[nH]cn1)NC(=O)[C@H](CCC(=O)O)NC(=O)[C@@H](NC(=O)[C@H](CC(C)C)NC(=O)[C@H](CCC(=O)O)NC(=O)[C@H](C)NC(=O)[C@@H](NC(=O)[C@@H](N)[C@@H](C)O)[C@@H](C)CC)C(C)C)C(C)C)C(C)C)[C@@H](C)CC)C(=O)N[C@@H](CO)C(=O)N1CCC[C@H]1C(=O)N[C@@H](CCCCN)C(=O)N[C@@H](CCC(=O)O)C(=O)N[C@@H](CCCNC(=N)N)C(=O)NCC(=O)N1CCC[C@H]1C(=O)N[C@@H](Cc1c[nH]c2ccccc12)C(=O)N[C@H](C(=O)N[C@@H](CC(C)C)C(=O)N[C@@H](CC(C)C)C(=O)N[C@@H](CCCCN)C(=O)N[C@@H](CCCNC(=N)N)C(=O)N[C@@H](CC(C)C)C(=O)N1CCC[C@H]1C(=O)N[C@H](C(=O)N[C@@H](Cc1ccc(O)cc1)C(=O)O)[C@@H](C)CC)[C@@H](C)O` [UL41-2], the entry is “water”; as for `CSCC[C@H](NC(=O)[C@H](CCCNC(=N)N)NC(=O)[C@H](Cc1c[nH]cn1)NC(=O)[C@@H](NC(=O)[C@H](CC(C)C)NC(=O)[C@H](CC(C)C)NC(=O)CNC(=O)[C@@H]1CCCN1C(=O)[C@H](CC(C)C)NC(=O)[C@H](CC(N)=O)NC(=O)[C@H](CCC(=O)O)NC(=O)[C@H](C)NC(=O)[C@H](CC(C)C)NC(=O)[C@H](CC(C)C)NC(=O)[C@H](C)NC(=O)[C@@H](NC(=O)[C@H](CCC(=O)O)NC(=O)[C@@H]1CCCN1C(=O)[C@@H](N)CC(C)C)[C@@H](C)O)C(C)C)C(=O)N[C@@H](C)C(=O)N[C@H](C(=O)N[C@@H](C)C(=O)N[C@@H](CC(C)C)C(=O)N1CCC[C@H]1C(=O)N[C@@H](CCC(=O)O)C(=O)N[C@H](C(=O)N1CCC[C@H]1C(=O)N[C@@H](CCC(=O)O)C(=O)N[C@@H](C)C(=O)N[C@@H](C)C(=O)N[C@@H](Cc1ccccc1)C(=O)N[C@@H](CCCNC(=N)N)C(=O)N[C@@H](CCC(=O)O)C(=O)N[C@@H](CCSC)C(=O)N[C@@H](CC(=O)O)C(=O)O)[C@@H](C)O)C(C)C` [UL37-1], “DMSO”. Under “RTLAVRGDASLCQLLFGHPVDAVILRQATRRPRIT [UL16-2]” stands “water”; under `CC(C)C[C@H](NC(=O)[C@@H]1CCCN1C(=O)[C@@H](NC(=O)[C@H](CO)NC(=O)[C@H](C)NC(=O)[C@H](CO)NC(=O)[C@H](CO)NC(=O)[C@H](CCCNC(=N)N)NC(=O)[C@@H](NC(=O)[C@H](CO)NC(=O)[C@@H](N)CC(=O)O)C(C)C)C(C)C)C(=O)N[C@@H](Cc1ccc(O)cc1)C(=O)N1CCC[C@H]1C(=O)N[C@@H](C)C(=O)N[C@@H](C)C(=O)N[C@@H](CO)C(=O)N1CCC[C@H]1C(=O)N[C@H](C(=O)N1CCC[C@H]1C(=O)N[C@@H](C)C(=O)N[C@@H](CCC(=O)O)C(=O)N[C@@H](C)C(=O)N[C@@H](Cc1ccc(O)cc1)C(=O)N[C@@H](Cc1ccc(O)cc1)C(=O)N[C@@H](CO)C(=O)N[C@@H](CCC(=O)O)C(=O)N[C@@H](CO)C(=O)N[C@@H](CCC(=O)O)C(=O)N[C@@H](CC(=O)O)C(=O)N[C@@H](CCC(=O)O)C(=O)N[C@@H](C)C(=O)N[C@@H](C)C(=O)N[C@@H](CC(N)=O)C(=O)N[C@@H](CC(=O)O)C(=O)N[C@@H](Cc1ccccc1)C(=O)O)C(C)C` [US09-2], “water”. Under “DRPPESPGSELYPLNAQALAHLQMLPADHRAFFRT [US10-2]” stands “water”; under “AGLPSPVPYAPLGSPDPSSPRQRTYVLPRVGIHNA [US10-1]”, “water”. For the molecule “PQPPLPQPPLPQPPLPQPPLPPVTRTLTPQSRDSV [UL36-3]”, the Solubility entry was “water”. As for `CSCC[C@H](NC(=O)[C@H](CC(C)C)NC(=O)[C@H](CC(N)=O)NC(=O)[C@H](CCC(=O)O)NC(=O)[C@H](CC(C)C)NC(=O)[C@H](CC(C)C)NC(=O)[C@@H](NC(=O)[C@@H]1CCCN1C(=O)[C@H](Cc1ccccc1)NC(=O)[C@H](CCCNC(=N)N)NC(=O)[C@H](CCCNC(=N)N)NC(=O)[C@@H](NC(=O)[C@@H](NC(=O)[C@H](CCC(=O)O)NC(=O)CNC(=O)[C@@H](N)CC(C)C)C(C)C)[C@@H](C)O)C(C)C)C(=O)N[C@@H](CCCNC(=N)N)C(=O)N[C@@H](C)C(=O)N[C@@H](CC(C)C)C(=O)N[C@@H](CCC(=O)O)C(=O)NCC(=O)N[C@H](C(=O)N[C@@H](C)C(=O)N1CCC[C@H]1C(=O)N[C@@H](CC(=O)O)C(=O)N[C@@H](C)C(=O)N[C@@H](Cc1ccccc1)C(=O)N[C@@H](Cc1ccccc1)C(=O)N[C@@H](Cc1c[nH]cn1)C(=O)N[C@H](C(=O)N[C@@H](C)C(=O)N[C@@H](Cc1ccc(O)cc1)C(=O)N[C@@H](C)C(=O)N[C@@H](CC(C)C)C(=O)N[C@@H](C)C(=O)O)[C@@H](C)O)[C@@H](C)O` [UL17-2], the Solubility result is “water”. As for “ATYLLNYAGRIVSSVFLQYPYTKITRLLCELSVQR [UL53-1]”, the entry is “DMSO”; as for “LEVIFPTTDAKLNYLSRTQRLASLLTYAGPIKAPD [UL33-1]”, “water”. Under “AAGKRGDSGLLRVCAALSIPKPSEAVRPSRIPRAP [US11-2]” stands “water”.

On to “VTTAEFPRDPGQLLYIPKTYLLGRPRNASLPELPE [UL22-1]”, for which the Solubility entry is “water”. Under `CSCC[C@H](NC(=O)[C@H](Cc1c[nH]c2ccccc12)NC(=O)[C@H](CO)NC(=O)[C@H](C)NC(=O)[C@H](Cc1c[nH]c2ccccc12)NC(=O)[C@H](Cc1c[nH]cn1)NC(=O)[C@H](Cc1ccc(O)cc1)NC(=O)[C@H](CC(C)C)NC(=O)[C@@H](NC(=O)[C@H](CO)NC(=O)[C@@H](NC(=O)[C@H](Cc1ccc(O)cc1)NC(=O)[C@H](C)NC(=O)[C@H](CC(C)C)NC(=O)[C@H](CC(C)C)NC(=O)[C@H](CCC(=O)O)NC(=O)[C@H](CO)NC(=O)[C@H](CC(C)C)NC(=O)[C@H](CCCNC(=N)N)NC(=O)[C@H](CC(C)C)NC(=O)[C@H](C)NC(=O)[C@@H](NC(=O)[C@H](CC(=O)O)NC(=O)[C@@H](NC(=O)[C@H](CO)NC(=O)[C@@H]1CCCN1C(=O)[C@H](CCCNC(=N)N)NC(=O)[C@H](CO)NC(=O)[C@@H]1CCCN1C(=O)[C@H](CC(=O)O)NC(=O)[C@H](C)N)[C@@H](C)O)[C@@H](C)O)C(C)C)C(C)C)C(=O)N[C@@H](CC(C)C)C(=O)N[C@@H](Cc1c[nH]c2ccccc12)C(=O)N[C@H](C(=O)N[C@@H](C)C(=O)O)[C@@H](C)O` [UL46-2] stands “DMSO”; under “IVGILGCAAVGAAPTGPASDTTNATARLPTHPPLI [US05-2]”, “water”.
